“Also recorded” adds a separate entry of the source. Where two headings read alike, the source gives them in different places.
Experiments:
VERO cells = assay: CCK-8 cytotoxicity assay, VERO; format: cell-based, African green monkey; details: for IC50: Chlorocebus sabaeus, VERO, CCK-8, 24 h; for proliferation rate of VERO cells / cytotoxicity in VERO cells: working concentrations; for proliferation rate of VERO cells: 24 h, vs control; for cytotoxicity in VERO cells: vs CXB
Protocol: (§1) The OSCC cell lines CAL-27 (STCC12901P, Servicebio, Wuhan, China) and SAS (CC0706, Cellcook, Guangzhou, China) were cultured in Dulbecco Modified Eagle Medium F12 (DMEM/F12) (G4610-500ML, Servicebio, Wuhan, China) supplemented with 10% fetal bovine serum (FBS) (AB-FBS-DIA1050, ABW, Shanghai, China) and 100 U/mL penicillin-streptomycin-gentamicin solution (G4014-100ML, Servicebio, Wuhan, China). VERO cells were cultured in DMEM (G4524-500ML, Servicebio, Wuhan, China) supplemented with 10% FBS (AB-FBS-DIA1050, ABW, China) and 100 U/mL penicillin–streptomycin–gentamicin solution (G4014-100ML, Servicebio, Wuhan, China). […] were maintained at 37 °C in a humidified 5% CO2 incubator. For experiments, 1 × 10^6 cells were seeded per T-25 culture flask.
(§2) CAL-27, SAS, and VERO cells were seeded in 96-well plates at a density of 5000 cells per well. At specified time intervals, 10 μL of Cell Counting Kit-8 (CCK-8) reagent (K1018, Apexbio, Boston, MA, USA) was added to each well and incubated for 2 h. Absorbance at 450 nm was measured using a microplate reader (Infinite M200 Pro, Tecan Group, Männedorf, Switzerland).

[1] = tested on: MMP2 mRNA in CAL-27 cells; assay: RT-qPCR MMP2 mRNA, CAL-27; format: cell-based; details: CAL-27, 24 h, vs control
Protocol: (§3) Equal amounts of RNA were reverse transcribed into cDNA using the Reverse Transcription Kit (AG11705, Accurate Biology, Guangzhou, China) following the manufacturer’s instructions. Quantitative PCR was performed on a QIAGEN Rotor-GeneQ system (9001862, QIAGEN, Hilden, Germany) with SYBR Green Pro Taq HS Premix II (AG11702, Accurate Biology, China).
(§4) The PCR protocol consisted of initial denaturation at 95 °C for 30 s, followed by 40 cycles of 95 °C for 5 s and 60 °C for 30 s. All reactions were performed in triplicate, with melting curve analysis confirming amplification specificity. The expression of the target genes was normalized to GAPDH, and fold changes were calculated in the manner of the 2^−ΔΔCT .

[2] = tested on: BCL2 mRNA in CAL-27 cells; assay: RT-qPCR BCL2 mRNA, CAL-27; format: cell-based; details: CAL-27, 24 h, vs control (NC)
Protocol: as §3, §4

[3] = tested on: COX-2 protein in CAL-27 cells; assay: Western blot COX-2, CAL-27; format: cell-based; details: CAL-27, vs control group and CXB-treated group
Protocol: (§5) Cell lysates were centrifuged at 12,000× g for 10 min at 4 °C and then quantified using the BCA Protein Assay Kit (CW0014S, Cwbio, Taizhou, China). The lysate was denatured with sodium dodecyl sulfate–polyacrylamide gel electrophoresis (SDS-PAGE) sample loading buffer (P1040, Solarbio, Beijing, China), followed by SDS-PAGE and electrotransfer to polyvinylidene difluoride membranes (10600023, Cytiva, Marlborough, MA, USA). The membranes were incubated overnight at 4 °C with GAPDH (1:5000, 1049-1-AP, Proteintech Group, Wuhan, China), anti-PTGS2 (1:2000, 12375-1-AP, Proteintech Group, China), anti-BAX (1:1000, ab777, Abcam, Cambridge, UK), anti-BCL2 (1:5000, ET1702-53, HUABIO, Hangzhou, China), anti-BCL-XL (1:8000, 10783-1-AP, Proteintech Group, China), anti-MMP2 (1:3000, 66366-1-Ig, Proteintech Group, China), anti-MMP9 (1:3000, 10372-2-AP, Proteintech Group, China), anti-JAK1 (1:3000, 66466-1-Ig, Proteintech Group, China), anti-phospho-JAK1 (1:400, GB115604-100, Servicebio, China), anti-STAT3 (1:2000, 10253-2-AP, Proteintech Group, China), and anti-phospho-STAT3 (1:1000, 39595, Activemotif, Shanghai, China) at the appropriate dilution and then incubated with the secondary antibody at room temperature for 1.5 h. The bands were visualized by employing an ECL detection reagent (36208ES76, Yeasen, Shanghai, China) and independently quantified twice using ImageJ (v1.8.0.322) and ChemiScope Analysis (Version 2.1.6.0) software. Subsequently, the obtained data were normalized to GAPDH.

CAL-27 cells [4] = assay: Hoechst 33342 staining, CAL-27; format: cell-based; details: CAL-27, 24 h, working concentrations, vs NC
Protocol: After 24 h drug treatment at the predefined working concentrations, CAL-27 and SAS cells were dyed with 300 μL Hoechst 33342 staining (C1022, Beyotime, China) in the dark at 37 °C for 10 min. Then, the residual Hoechst 33342 staining was washed 3 times with 1 × phosphate-buffered saline (PBS, G4250-500ML, Servicebio, China). The images were then immediately examined under an inverted fluorescence microscope (CX23, Olympus, Japan).

HepG2 = details: previous experiments, preliminary screening; cited from earlier work
CAL-27 cells [5] = assay: Annexin V-FITC/PI flow cytometry apoptosis, CAL-27; format: cell-based; details: CAL-27, 24 h, vs control
Protocol: After 24 h drug treatment at the predefined working concentrations, CAL-27 and SAS cells were trypsinized, centrifuged (200× g, 5 min, RT), and washed twice with 1 mL ice-cold PBS. Cell aliquots ((5–10) × 10^4 cells) were resuspended in 195 μL Annexin V-FITC binding buffer, followed by sequential addition of 5 μL Annexin V-FITC and 10 μL propidium iodide (PI) (BMS500FI-100, Thermo Fisher Scientific, Wien, Austria) with gentle mixing. After 10–20 min of incubation in darkness (20–25 °C) with intermittent resuspension (2–3 times), samples were placed on ice and analyzed within 1 h using a flow cytometer (CytExpert software [Version 2.4.0.28, Beckman Coulter, Brea, CA, USA]). Triplicate independent experiments were performed for statistical analysis.

SAS cells = assay: CCK-8 proliferation assay, SAS; format: cell-based; details: for IC50: SAS; for Selectivity Index SAS: SI = IC50,VERO/IC50,SAS
Protocol: as §1, §2

[6] = tested on: CYP19A1 mRNA in CAL-27 cells; assay: RT-qPCR CYP19A1 mRNA, CAL-27; format: cell-based; details: CAL-27, vs control
Protocol: as §3, §4

BCL2 mRNA in SAS cells = assay: RT-qPCR BCL2 mRNA, SAS; format: cell-based; details: vs NC and CXB groups
Protocol: as §3, §4

[7] = tested on: BCL2 protein in CAL-27 cells; assay: Western blot BCL2, CAL-27; format: cell-based; details: CAL-27, vs CXB
Protocol: as §5

[8] = CCK-8, 24 h, given as a range, read-out: IC50 (range)

With `Cc1cc(-c2ccco2)nn1S(=O)(=O)Oc1ccccc1Cl` [Compound 5f] the IC50 (VERO cells) was 225 µM, the “proliferation rate of VERO cells” value (VERO cells) was “moderate inhibitory effect” and the “cytotoxicity in VERO cells” value (VERO cells) was “lower cytotoxicity than CXB”. For the same molecule, the “MMP2 mRNA expression” value [1] was “significantly downregulated”, the “BCL2 mRNA level” value [2] was “upregulated” and the “COX-2 protein expression (Western blot)” value [3] was “significantly reduced”. The “apoptotic cells (Hoechst 33342, fluorescence microscopy)” value (“apoptotic cells” below) (CAL-27 cells [4]) was “significant increase”, the “antiproliferative effect on HepG2” value (HepG2) was “concentration-dependent antiproliferative effects” and the “apoptosis of HepG2” value (HepG2) was “induction of apoptosis”. For the same molecule, the “migration of HepG2” value (HepG2) was “suppression of migration”, the “total apoptotic cell population (early and late apoptosis)” value (“total apoptotic cell population” for short) (CAL-27 cells [5]) was “significantly higher” and the IC50 (SAS cells; [8]) was 59.4 to 69.5 µM. For the same molecule, the IC50 (SAS cells; CCK-8, read-out: IC50 SAS) was 64.2 µM, the “Selectivity Index SAS” value (SAS cells) was 3.50 and the “CYP19A1 mRNA expression” value [6] was “slightly influenced the expression, although not significantly”. The “BCL2 mRNA expression” value (BCL2 mRNA in SAS cells) was “significantly suppressed” and the “BCL2 protein suppression (Western blot)” value [7] was “stronger suppression of BCL2 than CXB”.

In the case of `Cc1ccc(-c2cc(C)n(S(=O)(=O)Oc3ccc(I)cc3)n2)cc1` [Compound 4b], the IC50 (VERO cells) is reported as 102 µM, the “proliferation rate of VERO cells” value (VERO cells) is reported as “remained largely unchanged” and the “cytotoxicity in VERO cells” value (VERO cells) is reported as “lower cytotoxicity than CXB”. The “MMP2 mRNA expression” value [1] was “significantly downregulated”, the “BCL2 mRNA level” value [2] was “significantly downregulated” and the “COX-2 protein expression (Western blot)” value [3] was “significantly reduced”. For the same molecule, the “apoptotic cells” value (CAL-27 cells [4]) was “significant increase”, the “antiproliferative effect on HepG2” value (HepG2) was “concentration-dependent antiproliferative effects” and the “apoptosis of HepG2” value (HepG2) was “induction of apoptosis”. The “migration of HepG2” value (HepG2) was “suppression of migration”, the “total apoptotic cell population” value (CAL-27 cells [5]) was “significantly higher; also recorded: strongest pro-apoptotic effect” and the IC50 (SAS cells; [8]) was 26 to 34.6 µM. For the same molecule, the IC50 (SAS cells; CCK-8, read-out: IC50 SAS) was 30.2 µM, the “Selectivity Index SAS” value (SAS cells) was 3.40 and the “CYP19A1 mRNA expression” value [6] was “significantly downregulated”. The “BCL2 mRNA expression” value (BCL2 mRNA in SAS cells) was “significantly suppressed” and the “BCL2 protein suppression (Western blot)” value [7] was “stronger suppression of BCL2 than CXB”.

With `Cc1ccc(-c2cc(C)n(S(=O)(=O)Oc3ccccc3Cl)n2)cc1` [Compound 4d] the IC50 (VERO cells) was over 100 µM, the “proliferation rate of VERO cells” value (VERO cells) was “remained largely unchanged” and the “cytotoxicity in VERO cells” value (VERO cells) was “lower cytotoxicity than CXB”. The “MMP2 mRNA expression” value [1] was “significantly downregulated”, the “BCL2 mRNA level” value [2] was “significantly downregulated” and the “COX-2 protein expression (Western blot)” value [3] was “significantly reduced”. The “apoptotic cells” value (CAL-27 cells [4]) was “significant increase”, the “antiproliferative effect on HepG2” value (HepG2) was “concentration-dependent antiproliferative effects” and the “apoptosis of HepG2” value (HepG2) was “induction of apoptosis”. For the same molecule, the “migration of HepG2” value (HepG2) was “suppression of migration”, the “total apoptotic cell population” value (CAL-27 cells [5]) was “significantly higher” and the IC50 (SAS cells; [8]) was 7.46 to 24.3 µM. The IC50 (SAS cells; CCK-8, read-out: IC50 SAS) was 16.7 µM, the “Selectivity Index SAS” value (SAS cells) was over 6.00 and the “CYP19A1 mRNA expression” value [6] was “significantly downregulated”. The “BCL2 protein suppression (Western blot)” value [7] was “stronger suppression of BCL2 than CXB”.

Source: publication PMC12469672, “Effects on Oral Squamous Carcinoma Cell Lines and Their Mechanisms of Pyrazole N-Aryl Sulfonate: A Novel Class of Selective Cyclooxygenase-2 Inhibitors” (International Journal of Molecular Sciences, 2025)
